Test results taken from patent publication US8680269B2, “Pesticidal compositions” (Dow AgroSciences, LLC., priority 2009, dated 2014).

Assays:
Assay type in all cases: in vivo
[1] = tested on: corn earworm (CEW; Helicoverpa zea); test: Insecticidal test for corn earworm, 128-well diet tray assay; details: 144 h, 50 μg/cm2 on artificial diet, second instar larvae, six days at 25° C.
Method: (§1) Bioassays on corn earworm (CEW; Helicoverpa zea: Lepidoptera) were conducted using a 128-well diet tray assay. Three to five second instar CEW larvae were placed in each well (3 mL) of the diet tray that had been previously filled with 1 mL of artificial diet to which 50 μg/cm^2 of the test compound (dissolved in 50 μL of 90:10 acetone-water mixture) had been applied (to each of eight wells) and then allowed to dry. Trays were covered with a clear self-adhesive cover, and held at 25° C., 14:10 light-dark for six days. Percent mortality was recorded for the larvae in each well; activity in the eight wells was then averaged.

[2] = tested on: beet armyworm (BAW; Spodoptera exigua); test: Insecticidal test for beet armyworm, 128-well diet tray assay; details: 144 h, 50 μg/cm2 on artificial diet, second instar larvae, six days at 25° C.
Method: as §1, with “beet armyworm (BAW; Spodoptera exigua:” for “corn earworm (CEW; Helicoverpa zea:”, “BAW” for “CEW”

[3] = tested on: green peach aphid (Myzus persicae); test: Insecticidal test for green peach aphid in foliar spray assay; details: 72 h, 200 ppm foliar spray on cabbage seedlings, graded after three days, Abbott corrected % control, read-out: Mortality GPA 200 ppm
Method: Cabbage seedlings grown in 3-inch pots, with 2-3 small (3-5 cm) true leaves, were used as test substrate. The seedlings were infested with 20-50 green peach aphids (wingless adult and nymph) one day prior to chemical application. Four pots with individual seedlings were used for each treatment. Compounds (2 mg) were dissolved in 2 mL of acetone/methanol (1:1) solvent, forming stock solutions of 1000 ppm. The stock solutions were diluted 5× with 0.025% Tween 20 in H2O to obtain the test solution at 200 ppm. A hand-held Devilbiss sprayer was used for spraying a solution to both sides of cabbage leaves until runoff. Reference plants (solvent check) were sprayed with the diluent only. Treated plants were held in a holding room for three days at approximately 25° C. and 40% relative humidity (RH) prior to grading. Evaluation was conducted by counting the number of live aphids per plant under a microscope. Insecticidal activity data, measured by using Abbott's correction formula, are presented in Table 2: Corrected % Control=100*(X−Y)/X • where X=No. of live aphids on solvent check plants • Y=No. of live aphids on treated plants

Row | Structure (SMILES) | mortality at 50 µg/cm2 [1] | mortality at 50 µg/cm2 [2] | mortality at 200 ppm [3]
1 | O=C(NC(=S)N/N=C/c1ccc(-c2ncn(-c3ccc(OC(F)(F)F)cc3)n2)cc1)c1ccc([N+](=O)[O-])cc1 [Compound 31] | < 50% | < 50% | < 80%
2 | CNC(=S)N/N=C/c1ccc(-c2ncn(-c3ccc(C(F)(F)F)cc3)n2)cc1 [Compound 15] | 50 to 100% | 50 to 100% | < 80%
3 | CCOC(=O)CNC(=S)N/N=C/c1ccc(-c2ncn(-c3ccc(OC(F)(F)F)cc3)n2)cc1 [Compound 30] | 50 to 100% | 50 to 100% | < 80%
4 | CN(C)c1ncc(NC(=S)N/N=C/c2ccc(-c3ncn(-c4ccc(OC(F)(F)F)cc4)n3)cc2)cn1 [Compound 43] | 50 to 100% | 50 to 100% | < 80%
5 | FC(F)(F)Oc1ccc(-n2cnc(-c3ccc(/C=N/NC(=S)NCCc4ccccn4)cc3)n2)cc1 [Compound 6] | 50 to 100% | 50 to 100% | < 80%
6 | FC(F)(F)Oc1ccc(NC(=S)N/N=C/c2ccc(-c3ncn(-c4ccc(OC(F)(F)F)cc4)n3)cc2)cc1 [Compound 26] | 50 to 100% | 50 to 100% | < 80%
7 | FC(F)(F)Oc1ccc(-n2cnc(-c3ccc(/C=N/NC(=S)NCc4ccco4)cc3)n2)cc1 [Compound 27] | 50 to 100% | 50 to 100% | < 80%
8 | CN(C)C(=S)N/N=C/c1ccc(-c2ncn(-c3ccc(C(F)(F)F)cc3)n2)cc1 [Compound 8] | 50 to 100% | 50 to 100% | < 80%
9 | FC(F)(F)Oc1ccc(-n2cnc(-c3ccc(/C=N/NC(=S)NCCC4=CCCCC4)cc3)n2)cc1 [Compound 20] | 50 to 100% | 50 to 100% | < 80%
10 | FC(F)(F)c1ccc(-c2cn(-c3ccc(/C=N/NC(=S)Nc4c(Cl)cccc4Cl)cc3)cn2)cc1 [Compound 70] | 50 to 100% | 50 to 100% | < 80%
11 | FC(F)(F)Oc1ccc(-n2cnc(-c3ccc(/C=N/NC(=S)NCCOc4ccccn4)cc3)n2)cc1 [Compound 17] | 50 to 100% | 50 to 100% | < 80%
12 | O=C(c1ccccc1NC(=S)N/N=C/c1ccc(-c2ncn(-c3ccc(OC(F)(F)F)cc3)n2)cc1)C(F)(F)F [Compound 61] | 50 to 100% | 50 to 100% | < 80%
13 | FC(F)(F)Oc1ccc(-n2cnc(-c3ccc(/C=N/NC(=S)Nc4ccc(Cl)cc4)cc3)n2)cc1 [Compound 56] | 50 to 100% | 50 to 100% | < 80%
14 | CN(C)S(=O)(=O)c1ccccc1NC(=S)N/N=C/c1ccc(-c2ncn(-c3ccc(OC(F)(F)F)cc3)n2)cc1 [Compound 77] | 50 to 100% | 50 to 100% | < 80%
15 | Fc1c(F)c(F)c(NC(=S)N/N=C/c2ccc(-c3ncn(-c4ccc(OC(F)(F)F)cc4)n3)cc2)c(F)c1F [Compound 64] | 50 to 100% | 50 to 100% | < 80%
16 | Cc1ccccc1NC(=S)N/N=C/c1ccc(-c2ncn(-c3ccc(OC(F)(F)F)cc3)n2)cc1 [Compound 71] | 50 to 100% | 50 to 100% | < 80%
17 | FC(F)(F)C(F)(F)Oc1ccc(-n2cnc(-c3ccc(/C=N/NC(=S)NCCc4ccccn4)cc3)n2)cc1 [Compound 9] | 50 to 100% | 50 to 100% | < 80%
18 | CCc1ccccc1NC(=S)N/N=C/c1ccc(-c2ncn(-c3ccc(OC(F)(F)F)cc3)n2)cc1 [Compound 62] | 50 to 100% | 50 to 100% | < 80%
19 | CN(C)c1ccc(NC(=S)N/N=C/c2ccc(-c3ncn(-c4ccc(OC(F)(F)F)cc4)n3)cc2)c(C(F)(F)F)c1 [Compound 49] | 50 to 100% | 50 to 100% | < 80%
20 | Fc1cccc(F)c1NC(=S)N/N=C/c1ccc(-c2ncn(-c3ccc(OC(F)(F)F)cc3)n2)cc1 [Compound 47] | 50 to 100% | 50 to 100% | < 80%

Row | Structure (SMILES) | mortality at 50 µg/cm2 [1] | mortality at 50 µg/cm2 [2] | mortality at 200 ppm [3]
21 | FC(F)(F)Oc1ccc(-n2cnc(-c3ccc(/C=N/NC(=S)Nc4c(Cl)cccc4Cl)cc3)c2)cc1 [Compound 68] | 50 to 100% | 50 to 100% | < 80%
22 | COc1cc(C)c(NC(=S)N/N=C/c2ccc(-c3ncn(-c4ccc(C(F)(F)F)cc4)n3)cc2)c(C)c1 [Compound 127] | 50 to 100% | 50 to 100% | < 80%
23 | C/C(=N\NC(=S)Nc1c(C)cccc1C)c1ccc(-c2ncn(-c3ccc(OC(F)(F)F)cc3)n2)cc1 [Compound 126] | 50 to 100% | 50 to 100% | < 80%
24 | FC(F)(F)Oc1ccc(-n2cnc(-c3ccc(/C=N/NC(=S)NCc4ccc(Cl)cc4)cc3)n2)cc1 [Compound 34] | 50 to 100% | 50 to 100% | < 80%
25 | COC(=O)C1CC(c2ccc(/C=N/NC(=S)Nc3c(C)cc(OC)cc3C)cc2)=NN1c1ccc(OC(F)(F)F)cc1 (stereo not drawn) [Compound 132] | 50 to 100% | 50 to 100% | < 80%
26 | CC(=O)Nc1cccc(NC(=S)N/N=C/c2ccc(-c3ncn(-c4ccc(OC(F)(F)F)cc4)n3)cc2)n1 [Compound 44] | < 50% | < 50% | < 80%
27 | COc1ccc(NC(=S)N/N=C(\C)c2ccc(-c3ncn(-c4ccc(OC(F)(F)F)cc4)n3)cc2)c(C)c1 [Compound 109] | 50 to 100% | 50 to 100% | < 80%
28 | COc1cc(C)c(NC(=S)N/N=C/c2ccc(C3=NN(c4ccc(OC(F)(F)F)cc4)C(C(N)=O)C3)cc2)c(C)c1 (stereo not drawn) [Compound 133] | 50 to 100% | 50 to 100% | < 80%
29 | Cc1cccc(Cl)c1NC(=S)N/N=C/c1ccc(-c2ncn(-c3ccc(OC(F)(F)F)cc3)n2)cc1 [Compound 65] | 50 to 100% | 50 to 100% | < 80%
30 | COc1cc(C)c(NC(=S)N/N=C(\C)c2ccc(-c3ncn(-c4ccc(OC(F)(F)F)cc4)n3)cc2)c(C)c1 [Compound 125] | 50 to 100% | 50 to 100% | < 80%
31 | FC(F)(F)Oc1ccc(-n2cnc(-c3ccc(/C=N/NC(=S)Nc4ccccc4Cl)cc3)n2)cc1 [Compound 54] | < 50% | < 50% | < 80%
32 | CSc1ccccc1NC(=S)N/N=C/c1ccc(-c2ncn(-c3ccc(OC(F)(F)F)cc3)n2)cc1 [Compound 75] | 50 to 100% | 50 to 100% | < 80%
33 | CN(C)c1cccc(CNC(=S)N/N=C/c2ccc(-c3ncn(-c4ccc(OC(F)(F)F)cc4)n3)cc2)c1 [Compound 38] | 50 to 100% | 50 to 100% | < 80%
34 | COc1ccc(NC(=S)N/N=C/c2ccc(-c3cn(-c4ccc(OC(F)(F)F)cc4)cn3)cc2)cc1 [Compound 67] | 50 to 100% | 50 to 100% | < 80%
35 | Fc1ccccc1CNC(=S)N/N=C/c1ccc(-c2ncn(-c3ccc(OC(F)(F)F)cc3)n2)cc1 [Compound 22] | 50 to 100% | 50 to 100% | < 80%
36 | COc1cc(C)c(NC(=S)N/N=C/c2ccc(-c3ncn(-c4ccc(OC(F)(F)F)cc4)n3)cc2)c(C)n1 [Compound 129] | 50 to 100% | 50 to 100% | < 80%
37 | FC(F)(F)Oc1ccc(-n2cnc(-c3ccc(/C=N/NC(=S)Nc4ccc(Cl)cc4Cl)cc3)n2)cc1 [Compound 55] | < 50% | < 50% | < 80%
38 | FC(F)(F)Oc1ccc(-n2cnc(-c3ccc(/C=N/NC(=S)Nc4ccccc4OC(F)(F)F)cc3)n2)cc1 [Compound 66] | 50 to 100% | 50 to 100% | < 80%
39 | CCc1cccc(C)c1NC(=S)N/N=C/c1ccc(-c2ncn(-c3ccc(OC(F)(F)F)cc3)n2)cc1 [Compound 72] | 50 to 100% | 50 to 100% | < 80%
